Converted amounts (≈) assume the structure as drawn. The source made the active and inactive calls. No cut-off for these calls is given here.
How the values were obtained:
[1] = Solubility of compound incubated for 5 mins by absorbance based assay; format: physicochemical
MDA-MB-231 [2] = assay: Inhibition of cell viability in human MDA-MB-231 cells at 100 uM incubated for 72 hrs by resazurin based assay; format: functional
MCF7 [3] = assay: Inhibition of cell viability in human MCF7 cells at 100 uM incubated for 72 hrs by resazurin based assay; format: functional
MDA-MB-468 [4] = assay: Inhibition of cell viability in human MDA-MB-468 cells at 100 uM incubated for 72 hrs by resazurin based assay; format: functional
MDA-MB-231 [5] = assay: Induction of cell death in human MDA-MB-231 cells at 0.05 to 200 uM incubated for 72 hrs by resazurin based assay; format: functional; settings: dose 0.05-200 µM
MDA-MB-468 [6] = assay: Induction of cell death in human MDA-MB-468 cells at 0.05 to 200 uM incubated for 72 hrs by resazurin based assay; format: functional; settings: dose 0.05-200 µM
MCF7 [7] = assay: Induction of cell death in human MCF7 cells at 0.05 to 200 uM incubated for 72 hrs by resazurin based assay; format: functional; settings: dose 0.05-200 µM
MCF7 [8] = assay: Inhibition of cell viability in human MCF7 cells upto 100 uM incubated for 72 hrs by resazurin based assay relative to control; format: functional; settings: up to 100 µM
MDA-MB-468 [9] = assay: Cytotoxicity against human MDA-MB-468 cells assessed as cell viability at 100 uM incubated for 72 hrs by resazurin based assay relative to control; format: functional; settings: read-out: Activity
MDA-MB-468 [10] = assay: Inhibition of cell viability in human MDA-MB-468 cells upto 100 uM incubated for 72 hrs by resazurin based assay relative to control; format: functional; settings: up to 100 µM
[11] = target: T1, Dihydrofolate reductase (Homo sapiens) (UniProt P00374); settings: MDA-MB-468, dose 10.0 nM, time 24.0 hrs
T1 sequence (whole entry): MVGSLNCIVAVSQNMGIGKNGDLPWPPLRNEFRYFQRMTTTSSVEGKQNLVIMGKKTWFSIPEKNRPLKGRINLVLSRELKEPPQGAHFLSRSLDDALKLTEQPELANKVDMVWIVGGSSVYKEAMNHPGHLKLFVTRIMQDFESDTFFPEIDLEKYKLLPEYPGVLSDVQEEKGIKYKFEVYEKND

MCF7 [12] = assay: Cytotoxicity against human MCF7 cells assessed as cell viability at 100 uM incubated for 72 hrs by resazurin based assay relative to control; format: functional; settings: read-out: Activity
[13] = target: T1, Dihydrofolate reductase (Homo sapiens); settings: MDA-MB-468, dose 1.0 nM, time 24.0 hrs
MDA-MB-231 [14] = assay: Cytotoxicity against human MDA-MB-231 cells assessed as cell viability at 100 uM incubated for 72 hrs by resazurin based assay relative to control; format: functional; settings: read-out: Activity
MDA-MB-231 [15] = assay: Inhibition of cell viability in human MDA-MB-231 cells upto 100 uM incubated for 72 hrs by resazurin based assay relative to control; format: functional; settings: up to 100 µM

| SMILES | solubility at 5 min [1] [µM] | inhibition (MDA-MB-231 [2]) | inhibition (MCF7 [3]) | inhibition (MDA-MB-468 [4]) | other results |
| --- | --- | --- | --- | --- | --- |
| Nc1ncc(-c2ccc(Cl)c([N+](=O)[O-])c2)c(N)n1 | > 100 |  |  |  |  |
| Nc1ncc(-c2ccc(F)cc2Br)c(N)n1 |  | inactive | inactive | inactive |  |
| COc1cc(-c2cnc(N)nc2N)ccc1C | > 100 |  |  |  |  |
| CC(C)c1ccc(-c2cnc(N)nc2N)cc1 | > 100 |  | inactive |  |  |
| CN(Cc1ccccc1)c1ccc(-c2cnc(N)nc2N)cc1[N+](=O)[O-] | ~10 (≈ 3.5 µg/mL) |  | inactive |  |  |
| NCCCCCCNc1ccc(-c2cnc(N)nc2N)cc1[N+](=O)[O-] | > 100 | Active | Active | Active | Activity (MDA-MB-231 [5]): Active; Activity (MDA-MB-468 [6]): Active; Activity (MCF7 [7]): Active |
| CC(C)(C)c1ccc(-c2cnc(N)nc2N)cc1 |  |  |  | Active |  |
| Nc1ncc(-c2ccc(Cl)c(F)c2)c(N)n1 |  |  | inactive |  |  |
| Nc1ncc(-c2cccc(Cl)c2)c(N)n1 | > 100 |  |  |  |  |
| Nc1ncc(-c2ccc(Cl)c(Cl)c2)c(N)n1 | > 100 |  |  |  |  |
| COc1ccc(CNc2ccc(-c3cnc(N)nc3N)cc2[N+](=O)[O-])cc1 | ~10 (≈ 3.66 µg/mL) | Active | Active | Active | Activity (MDA-MB-231 [5]): Active; Activity (MDA-MB-468 [6]): Active; Activity (MCF7 [7]): Active |
| Nc1ncc(-c2ccc3ccccc3c2)c(N)n1 | > 100 | Active | Active | Active | Activity (MDA-MB-231 [5]): Active; Activity (MDA-MB-468 [6]): Active; Activity (MCF7 [7]): Active |
| CCc1nc(N)nc(N)c1-c1ccc(Cl)cc1 [PYRIMETHAMINE] | > 100 |  |  |  | inhibition (INH) (MCF7 [8]): ~50%; viability at 100 µM (MDA-MB-468 [9]): ~50%; inhibition (INH) (MDA-MB-468 [10]): ~50%; inhibition [11]: Active; viability at 100 µM (MCF7 [12]): ~50%; inhibition [13]: 40%; viability at 100 µM (MDA-MB-231 [14]): ~50%; inhibition (INH) (MDA-MB-231 [15]): ~50% |
| Cc1ccc(-c2cnc(N)nc2N)cc1 |  |  | inactive |  |  |
| Nc1ncc(-c2ccc(N3CCCC3)c([N+](=O)[O-])c2)c(N)n1 | > 100 | Active | Active | Active | Activity (MDA-MB-231 [5]): Active; Activity (MDA-MB-468 [6]): Active; Activity (MCF7 [7]): Active |

Reference: ChEMBL document CHEMBL5537142 (Eur J Med Chem, 2024)
